# Results published in patent EP0333356A2, “Hirudin peptides” (BIOGEN, INC., priority 1988, dated 1989).
# Assays:
# bovine plasma thrombin = molecular target: T1, bovine plasma thrombin (Bos taurus, UniProt P00735); assay: thrombin-catalyzed hydrolysis of tosyl-Gly-Pro-Arg-p-nitroanilide (Chromozym TH); format: biochemical; details: 4.2 x 10⁻⁶ M to 2.1 x 10⁻⁷ M peptide
# T1 construct: bovine plasma thrombin, Calbiochem, Behring Diagnostics, La Jolla, CA; purchased Calbiochem, Behring Diagnostics, La Jolla, CA; host or cells: bovine plasma
# Description: We analyzed the hirudin peptides of this invention for inhibition of thrombin-catalyzed hydrolysis of the tripeptidyl p-nitroanilide substrate tosyl-Gly-Pro-Arg-p-nitroanilide (Chromozym TH, Boehringer-Mannheim, Indianapolis, In.) spectrophotometrically at 420 nm on a Cary 219 double-beam spectrophotometer. Reactions were prepared by mixing 10 µl of thrombin solution (bovine plasma thrombin, Calbiochem, Behring Diagnostics, La Jolla, CA, 0.1 mg/ml in 0.1 M Tris-HCl, pH 7.4, 0.15 M NaCl) with 1.0 ml of 0.1 M Tris-HCl, pH 7.4, 0.15 M NaCl buffer. We then added 25 µl of substrate solution (4 mg/ml tosyl-Gly-Pro-Arg-p-nitroanilide in the above buffer) and varying amounts of hirudin₄₅₋₆₄ (as prepared in Example 4) from a 1.0 mg/ml stock solution to a final fixed volume of 1.035 ml, with final concentrations of thrombin and substrate of 2.8 x 10⁻⁸ M and 1.4 x 10⁻⁴ M, respectively.
# thrombin = molecular target: T2, thrombin (Homo sapiens, UniProt P00734); assay: activated partial thromboplastin time (APTT) assay of pooled normal human plasma; format: biochemical; details: result in words
# T2 construct: pooled, normal human plasma (George King Biomedical, Inc., Overland Park, Kansas); tissue George King Biomedical, Inc; host or cells: pooled normal human plasma
# Description: Anticoagulant activity was determined by assaying APTT of pooled, normal human plasma (George King Biomedical, Inc., Overland Park, Kansas) (diluted 4:1, v/v, plasma:water) with a Coag-A-Mate 2001 instrument (General Diagnostics, Inc.. Morris Plains, New Jersey). Specifically, diluted plasma was mixed with stock solutions of hirudin peptides at concentrations ranging from 750 µg/ml in water, for non-sulfated hirudin peptides, to 35 µg/ml in water for sulfated hirudin peptides. The plasma and hirudin peptides were mixed to a final volume of 125 µl prior to each APTT determination.
# We began the APTT assay by adding 92 µl of a crude thromboplastin suspension (General Diagnostics) and 100 µl of 0.3 M calcium chloride reagent to each well of a Coag-A-Mate dish (General Diagnostics) per APTT determination, to a final volume of assay mixture per well of 317 µl. The calcium chloride was prepared fresh prior to each assay. Activation times were constant at 180 sec.
Compound,inhibitory effect on thrombin-catalyzed hydrolysis of the artificial substrate (bovine plasma thrombin),increase in clotting time (APTT) (thrombin),increase in clotting time (APTT) (thrombin; listed as hirudin₅₃₋₆₂)
CC[C@H](C)[C@H](NC(=O)[C@H](CCC(=O)O)NC(=O)[C@H](CCC(=O)O)NC(=O)[C@H](Cc1ccccc1)NC(=O)[C@H](CC(=O)O)NC(=O)CNC(=O)[C@H](CC(N)=O)NC(=O)[C@H](CC(N)=O)NC(=O)[C@H](Cc1c[nH]cn1)NC(=O)[C@H](CO)NC(=O)[C@H](CCC(=O)O)NC(=O)[C@@H]1CCCN1C(=O)[C@H](CC(N)=O)NC(=O)[C@@H]1CCCN1C(=O)[C@@H](N)[C@@H](C)O)C(=O)N1CCC[C@H]1C(=O)N[C@@H](CCC(=O)O)C(=O)N[C@@H](CCC(=O)O)C(=O)N[C@@H](Cc1ccc(O)cc1)C(=O)N[C@@H](CC(C)C)C(=O)O [hirudin₄₅₋₆₄],no measurable inhibitory effect,–,–
H-NGDFEEIPEE-OH [des(Tyr-Leu) hirudin₅₃₋₆₂],–,no comparative increase in clotting time,no reasonable inhibitory activity
